Experimental data taken from US6812380B2, “Compositions and methods of zearalenone detoxification” (Pioneer Hi-Bred International, Inc., priority 2001, dated 2004).

Tests used:
Armenian hamster = settings: in vivo; cited from earlier work
[1] = biological target: T1, ZES2b translation products (Bionectria ochroleuca, UniProt Q8NKB0, A65V/H263Y/S41R/T3I); type: biochemical, Gliocladium roseum; settings: 37° C. for 16 hours
T1 construct: made in house; host or cells: cell-free coupled transcription/translation (Roche RTS500; T7 polymerase, E. coli ribosomes) from plasmids pFMB35-34 (cDNA) and pFMB35-13 (genomic DNA)
T1 sequence (Q8NKB0 1-264 T3I/S41R/A65V/H263Y): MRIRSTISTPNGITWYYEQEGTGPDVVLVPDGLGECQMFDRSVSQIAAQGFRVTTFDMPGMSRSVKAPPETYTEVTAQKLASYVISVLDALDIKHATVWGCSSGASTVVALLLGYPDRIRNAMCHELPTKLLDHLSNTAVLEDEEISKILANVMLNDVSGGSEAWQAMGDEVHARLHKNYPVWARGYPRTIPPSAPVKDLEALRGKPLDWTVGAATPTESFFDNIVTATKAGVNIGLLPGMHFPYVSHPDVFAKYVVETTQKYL

[2] = tested on: human breast cancer cells; settings: cited from earlier work
uterine tissues = settings: mouse, in vivo; cited from earlier work
mice = settings: mouse, in vivo; cited from earlier work
humans = settings: in vivo; cited from earlier work
[3] = tested on: zearalenone esterase synthesis in G. roseum; settings: cited from earlier work
rats = settings: rat, in vivo; cited from earlier work
[4] = tested on: ZES1, ZES2, and ZES2b transcripts; experiment: Differential transcript profiling (Curagen Profiling) of G. roseum cultures; type: cell-based, Gliocladium roseum; settings: G. roseum cultured with 10 μg/ml for 12 hours at 22° C.
Experimental: The ZES1, ZES2, and ZES2b sequences of the invention were identified by assaying for differential expression patterns in the presence of α-zearalenol and β-zearalenol, which allowed for identification of the nucleotide sequences of the invention. Specifically, G. roseum was cultured in the presence of either 10 μg/ml α-zearalenol or 10 μg/ml β-zearalenol for 12 hours at 22° C. Following culturing, Curagen Profiling technology was used to identify transcripts present in α-zearalenol-induced cultures but absent in β-zearalenol-induced cultures.

Row | SMILES | induction of hepatic carcinomas (Armenian hamster) | degradation of substrate after incubation with the translation product of pFMB35-13 [1] | degradation of substrate after incubation with the translation product of pFMB35-34 [1] | entry of human breast cancer cells into the cell cycle [2] | modulation of uterine tissues (uterine tissues) | carcinogenicity (mice) | estrogenic effects in humans (humans) | hyperestrogenic syndrome in humans (humans) | induction of synthesis of zearalenone esterase in G. roseum [3] | teratogenicity (rats) | expression of ZES1, ZES2, and ZES2b transcripts in induced cultures [4]
1 | C[C@H]1CCCC(=O)CCC/C=C/c2cc(O)cc(O)c2C(=O)O1 [zearalenone] | induce hepatic carcinomas | completely degraded | completely degraded | stimulates human breast cancer cells to enter the cell cycle | induce modulation of uterine tissues | carcinogenic | exhibits estrogenic effects | causes hyperestrogenic syndrome | occurs only when zearalenone or its derivative α-zearalenol is present in the culture medium | teratogenic | –
2 | C[C@H]1CCC[C@H](O)CCC/C=C/c2cc(O)cc(O)c2C(=O)O1 [α-zearalenol] | – | completely degraded | completely degraded | – | – | – | – | – | occurs only when zearalenone or its derivative α-zearalenol is present in the culture medium | – | upregulated
3 | C[C@H]1CCC[C@@H](O)CCC/C=C/c2cc(O)cc(O)c2C(=O)O1 [β-zearalenol] | – | completely degraded | completely degraded | – | – | – | – | – | does not induce synthesis of zearalenone esterase | – | –
